From US20040014794A1, “Use of hydroxypyridone-derivatives in wound healing” (priority 2002, published 2004)
Where a name gives a salt, the structure may show the parent alone. Read-outs that look alike come from different tables or passages of the source.

Key:
isolated rat kidneys = assay: Isolated perfused rat kidney (ex vivo model)
Source text: Systemically administered DFX can induce ubiquitous HIF-1 stability and kidney-specific erythropoietin expression in mice (Wang, G. L., and Semenza, G. L. (1993), Desferrioxamine Induces Erythropoietin Gene Expression and Hypoxia-Inducible Factor 1 DNA-Binding Activity: Implications for Models of Hypoxia Signal Transduction, Blood 82, 3610-3615). Regarding a topical application of CPX as a HIF-1-inducing agent for therapeutic angiogenesis, it was important to test whether CPX could lead to a systemic induction of VEGF. […]

[1] = test system: gram-positive and gram-negative bacteria; settings: cited from earlier work
[2] = test system: chicken chorioallantoic membrane (CAM)
Procedure: CAM assays were performed as described by Olivo, M. et al. (A Comparative Study on The Effects of Tumor Necrosis Factor-A (TNF-α), Human Angiogenic Factor (h-AF) and Basic Fibroblast Growth Factor (bFGF) on the Chorioallantoic Membrane of the Chick Embryo, (1992) Anat. Rec. 234, 105-115). Briefly, fertilized eggs (purchased from Lohmann Tierzucht, Cuxhaven, Germany) were incubated at 37° C. in a humidified atmosphere. The eggs were kept on their sides and turned upside down twice a day. After 6 days, a small hole was drilled through the shell into the air sac (visualized using a strong light source) and a window of approximately 0.5 cm^2 was sawed into the side of the egg. The window was sealed with tape and the eggs were reincubated until day 9, when 6-cyclohexyl-1-hydroxy-4-methyl-2(1H)-pyridone 2-aminoethanol salt (CPX) was applied to the CAM using the Elvax® method (see Olivo, M. et al. above). Therefore, ethylene/vinyl acetate copolymer beads (Elvax®) 40L-03, DuPont, provided by C. H. Erbslöh KG, Krefeld, Germany) were extensively washed in ethanol and dried under reduced pressure. The Elvax® beads were then dissolved in methylene chloride at 10% (w/v) and CPX was added to the desired concentration. One drop (40 μL) of this solution was pipetted onto a siliconized glass slide and the solvent was allowed to evaporate completely. Using forceps, the Elvax® disc was carefully lifted from the glass slides and placed onto the CAM. At day 11, the window was enlarged and the CAM was documented using a digital camera (Olympus) coupled to an ocular of a stereomicroscope.
Therefore, the chicken CAM at day 9 of development was overlaid with inert polymer discs containing various concentrations of CPX or solvent only.

HIF-1α protein = HIF-1α protein induction in HepG2 hepatoma cells; format: cell-based, human; settings: for HIF-1α levels, combination with hypoxia: CPX plus hypoxia (1% O2)
Procedure: (§1) The HRCHO5 cells containing a stable transfected, HIF-1-dependent reporter gene were described previously (Wanner, R. M., et al. (2000), Epolones Induce Erythropoietin Expression Via Hypoxia-Inducible Factor-1α Activation, Blood 96, 1558-1565). The human HepG2 hepatoma cell line was obtained from American Type Culture Collection (ATCC numbers HB-8065). All cell lines were cultured in Dulbecco's modified Eagle's medium (DMEM, high glucose, Life Technologies) supplemented with 10% heat-inactivated FCS, 100 U/ml penicillin, 100 μg/ml streptomycin, 1× non-essential amino acids and 1 mM Na-pyruvate (all purchased from Life Technologies) in a humidified atmosphere containing 5% CO2 at 37° C. Oxygen partial pressures in the incubator (Forma Scientific, model 3131) were either 140 mm Hg (20% 02 v/v, normoxia) or 7 mm Hg (1% O2 v/v, hypoxia). Ciclopirox olamine (CPX), deferoxamine mesylate (DFX) and 2,2′-dipyridyl (DP) were purchased from Sigma. Stock solutions of CPX and DP were prepared in methanol at 0.5 M and 1 M, respectively. DFX was freshly dissolved at 10 mM into the cell culture medium.

VEGF protein = assay: Accumulation of VEGF protein in the supernatant of the HepG2 cell culture; format: cell-based, human; settings: following 6 or 24 hours of treatment
Procedure: as §1

[3] = test system: HIF-1 target genes VEGF, glucose transporter-1 (Glut-1) and aldolase; assay: Northern blotting of mRNA of endogenous HIF-1 target genes in HepG2 cells; format: cell-based, human; settings: HepG2 cells treated for 24, 48 and 72 hours; control genes L28 and β-actin not induced
Procedure: as §1

VEGF promoter = assay: VEGF promoter-driven luciferase reporter gene assay in transiently transfected HepG2 cells; format: cell-based, human; settings: increasing concentrations of CPX for 24 hours
Procedure: The HRCHO5 cells containing a stable transfected, HIF-1-dependent reporter gene were described previously (Wanner, R. M., et al. (2000), Epolones Induce Erythropoietin Expression Via Hypoxia-Inducible Factor-1α Activation, Blood 96, 1558-1565). The human HepG2 hepatoma cell line was obtained from American Type Culture Collection (ATCC numbers HB-8065). All cell lines were cultured in Dulbecco's modified Eagle's medium (DMEM, high glucose, Life Technologies) supplemented with 10% heat-inactivated FCS, 100 U/ml penicillin, 100 μg/ml streptomycin, 1× non-essential amino acids and 1 mM Na-pyruvate (all purchased from Life Technologies) in a humidified atmosphere containing 5% CO2 at 37° C. […]
HepG2 cells were transiently electroporated with a VEGF promoter-driven luciferase construct as described previously (Ikeda, E., et al. (1995), Hypoxia-Induced Transcriptional Activation and Increased mRNA Stability of Vascular Endothelial Growth Factor in C6 Glioma Cells, J. Biol. Chem. 270, 19761-19766). Following stimulation, transiently and stable transfected cells were lysed in passive lysis buffer (Promega) and the luciferase activity was determined using a luciferase assay kit according to the manufacturer's instructions (Promega) in a 96-well luminometer (MicroLumat LB96P, EG&G Berthold). […] Absorbances at 570 nm were determined in a 96-well photometer (Rainbow, SLT Labsystems). […]

rabbit skin = settings: 1% CPX solution applied on rabbit skin over 20 days; cited from earlier work
NMRI mice = assay: Mouse skin wound model (punch-through ear holes); settings: dermal cream containing 1% CPX, daily
Procedure: Both ears of adult NMRI mice were wounded under anesthesia with 100 mg/kg ketamine (Narketan®) and 5 mg/kg xylazine (Rompun®) by punch-through holes of 2 mm diameter using a standard ear-punching tool. The ears were treated daily with a common skin cream containing (Batrafen®) or not containing 1% (w/v) CPX. One ear was treated with CPX and the other ear with the control cream. The amount of cream was sufficient to cover the hole and was equally distributed over the entire ear.
Punch-through ear holes of 2 mm diameter (a widespread way of marking mice in animal facilities) were treated daily with a commercially available dermal cream containing 1% CPX on one ear and a CPX-free but otherwise identical common dermal cream on the other ear, respectively.

HIF-1 = settings: systemically administered, mice; cited from earlier work
[4] = higher CPX concentrations (33 μM and 100 μM)
[5] = perfused 3 hours, normoxic, 0.1 μM to 100 μM

With `Cc1cc(C2CCCCC2)n(O)c(=O)c1.NCCO` [CPX, 6-cyclohexyl-1-hydroxy-4-methyl-2(1H)-pyridone 2-aminoethanol salt] the “albumin and sodium excretion rates” value (isolated rat kidneys; [4]) was “strong increase”, the kidney function (isolated rat kidneys; [4]) was “down regulation” and the “Glut-1 mRNA level” value (isolated rat kidneys; [5]) was “did not induce”. For the same molecule, the “VEGF mRNA level” value (isolated rat kidneys; [5]) was “did not induce”, the “aldolase mRNA level” value (isolated rat kidneys; [5]) was “did not induce” and the “Glut-1 mRNA level under hypoxic perfusion” value (isolated rat kidneys; perfusion with 3% oxygen for 3 hours plus CPX) was “not further elevated”. For the same molecule, the “effectiveness against gram-positive and gram-negative bacteria” value [1] was “effective”, the “number of CAMs showing angiogenesis” value ([2]; 50 mM CPX, all 7 control CAMs lacked angiogenesis) was 10 and the CAM angiogenesis ([2]; polymer discs containing 5 mM CPX) was “indistinguishable from the controls”. The CAM angiogenesis ([2]; polymer discs containing 50 mM CPX, two days of incubation) was “consistently induced CAM angiogenesis”, the “toxicity to the chick embryo” value ([2]; polymer discs containing 500 mM CPX) was “toxic” and the HIF-1α protein (HIF-1α protein; 5 μM to 20 μM, normoxic HepG2 cells, after 6 and 24 hours of treatment) was “strongly induced”. For the same molecule, the “HIF-1α levels, combination with hypoxia” value (HIF-1α protein; after 6 hours) was “did not further increase”, the “HIF-1α levels, combination with hypoxia” value (HIF-1α protein; after 24 hours of treatment) was “decreased” and the “VEGF protein in the supernatant” value (VEGF protein) was “increased in a dose-dependent manner”. The “expression of VEGF mRNA” value [3] was “induced”, the “expression of aldolase mRNA” value [3] was “induced” and the “expression of glucose transporter-1 (Glut-1) mRNA” value (shortened to “expression … (Glut-1) mRNA”) [3] was “induced”. The “luciferase activity (1180 bp VEGF promoter fragment)” value (VEGF promoter) was “dose-dependent increase”, the “reddening of experimentally wounded skin” value (rabbit skin) was “persistent reddening” and the “reddening of healthy skin” value (rabbit skin) was “occasionally transient reddening”. For the same molecule, the “animals showing reddening of the wound margin” value (NMRI mice) was 4 of 10, the “reddening of the wound margin” value (NMRI mice) was “can cause reddening” and the “angiogenesis in mouse skin wound model” value (NMRI mice; ear holes of 2 mm diameter) was “can induce angiogenesis”.

With `CC(=O)N(O)CCCCCNC(=O)CCC(=O)N(O)CCCCCNC(=O)CCC(=O)N(O)CCCCCN` [DFX, deferoxamine mesylate] the “expression of VEGF mRNA” value [3] was “induced”, the “expression of aldolase mRNA” value [3] was “induced” and the “expression … (Glut-1) mRNA” value [3] was “induced”. For the same molecule, the kidney-specific erythropoietin expression (HIF-1) was “can induce” and the “ubiquitous HIF-1 stability” value (HIF-1) was “can induce”.

In the case of `c1ccc(-c2ccccn2)nc1` [DP, 2,2′-dipyridyl], the “expression of VEGF mRNA” value [3] is reported as “induced”, the “expression of aldolase mRNA” value [3] is reported as “induced” and the “expression … (Glut-1) mRNA” value [3] is reported as “induced”.
